Experimental findings from ChEMBL document CHEMBL1201862, “PubChem BioAssay data set” (2004) are described below.

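Test compounds were applied to cells in 96-well plates for 48 hours at 5 doses. GI50 marks 50% less growth.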 Calls of active or inactive are those of the source. Rule as the data show it: active = GI50 up to about 1.1 µM and inactive = higher. Where only a bound is given, the exact number is not on record here.

Test systems include 786-0; A549; KM12; MCF7; MDA-MB-231; MDA-MB-435; MOLT-4; NCI-H226; NCI-H23; NCI-H460; NCI/ADR-RES; OVCAR-3; SF-295; SK-OV-3; SNB-19; SW-620; T47D; UO-31; EKVX; K562.
Holding throughout (assay): NCI tumour cell line growth inhibition, 48 h

In the case of `CN(C)CCNC(=O)c1cccc(NC(=O)c2ccccc2)c1[N+](=O)[O-]`, the GI50 in the test with 786-0, with A549, in the test on KM12, with MCF7, with MDA-MB-231 and in the test with MDA-MB-435 was > 100 µM (inactive) throughout. Moreover, the GI50 is > 100 µM (inactive) with MOLT-4; > 100 µM (inactive) with NCI-H226; > 100 µM (inactive) in the test on NCI-H23; 93.5 µM (inactive) in the test on NCI-H460; > 100 µM (inactive) in the test on NCI/ADR-RES; 27.7 µM (inactive) in the test with OVCAR-3. The GI50 in the test with SF-295, in the test on SK-OV-3, with SNB-19, in the test with SW-620, in the test on T47D and in the test on UO-31 was > 100 µM (inactive) each time.
For `N#Cc1nc(COCc2ccccc2)oc1N`, the GI50 in the test on 786-0 is > 100 µM (inactive); in the test with A549, > 100 µM (inactive); in the test on EKVX, > 100 µM (inactive); with K562, 49.7 µM (inactive); in the test with KM12, 58.6 µM (inactive); in the test with MCF7, > 100 µM (inactive). Also, the GI50 with MDA-MB-231, in the test with MDA-MB-435, with MOLT-4, with NCI-H226, in the test with NCI-H23 and in the test with NCI/ADR-RES was > 100 µM (inactive) in each case. The GI50 with OVCAR-3, in the test on SF-295, in the test on SK-OV-3, in the test on SNB-19, with SW-620 and in the test on T47D was > 100 µM (inactive) throughout. Moreover, the GI50 in the test on UO-31 is > 100 µM (inactive).
`O=C1/C(=C/C=C/c2ccccc2)N=C(c2ccccc2)N1C1Nc2cc3c(cc2S1)NC(N1C(=O)/C(=C/C=C/c2ccccc2)N=C1c1ccccc1)S3` (stereo not drawn): the GI50 in the test with 786-0 is 45.9 µM (inactive); in the test on EKVX, > 100 µM (inactive); with K562, 0.311 µM (active); in the test on KM12, 21.7 µM (inactive); with MCF7, 29.9 µM (inactive); in the test with MDA-MB-231, 31.6 µM (inactive). The GI50 in the test on MDA-MB-435 was 31.9 µM (inactive); with MOLT-4 it was 0.0117 µM (active); in the test with NCI-H226 it was > 100 µM (inactive); in the test with NCI-H23, 66.5 µM (inactive); with NCI-H460, 15.8 µM (inactive); in the test with NCI/ADR-RES, 67.9 µM (inactive). For the same molecule, the GI50 with OVCAR-3 is 46.9 µM (inactive); with SF-295, 67.6 µM (inactive); with SK-OV-3, > 100 µM (inactive); with SW-620 it was 22.4 µM (inactive); with T47D it was 30.3 µM (inactive); in the test on UO-31 it was 28.1 µM (inactive).
Take `CC(=O)SSC1(Cl)C(C)(C)C(Cl)(SSC(C)=O)C1(C)C` (stereo not drawn): the GI50 in the test on 786-0 was 49.2 µM (inactive); with A549, 73.6 µM (inactive); with EKVX, 39.9 µM (inactive); in the test with KM12, 39.4 µM (inactive); in the test on MCF7 it was 33.6 µM (inactive); in the test with MDA-MB-231, > 100 µM (inactive). For the same molecule, the GI50 with MDA-MB-435 is 49.1 µM (inactive); in the test with NCI-H226 it was > 100 µM (inactive); with NCI-H23, 57.1 µM (inactive); in the test on NCI-H460, 28.5 µM (inactive); with NCI/ADR-RES, 40.2 µM (inactive); in the test with OVCAR-3, 61.4 µM (inactive). Also, the GI50 was 43.5 µM (inactive) in the test with SF-295; > 100 µM (inactive) in the test with SK-OV-3; 35 µM (inactive) with SNB-19; 40.1 µM (inactive) in the test on SW-620; 20.8 µM (inactive) in the test with T47D; 94.8 µM (inactive) with UO-31.
Take `CN(C)C(=O)C(F)(F)C(c1ccc(C(F)(F)F)cc1)C1C(=O)N(C)C(=O)N(C)C1=O` (stereo not drawn): the GI50 in the test on 786-0, in the test on A549, with EKVX, in the test with KM12, with MCF7 and in the test with MDA-MB-231 was > 100 µM (inactive) throughout. Moreover, the GI50 in the test on MDA-MB-435, in the test on NCI-H226, in the test on NCI-H23, in the test on NCI-H460, in the test with NCI/ADR-RES and in the test with OVCAR-3 was > 100 µM (inactive) in each case. For the same molecule, the GI50 in the test with SF-295, in the test on SK-OV-3, in the test with SNB-19, in the test on SW-620, in the test with T47D and in the test with UO-31 was > 100 µM (inactive) throughout.
Take `CCNc1nc2c(ncn2C2CC(O)C(COP(=O)(O)O)O2)c(=O)[nH]1` (stereo not drawn): the GI50 in the test with 786-0, with A549, in the test on EKVX, in the test on KM12, in the test on MCF7 and in the test with MDA-MB-231 was > 100 µM (inactive) in each case. Also, the GI50 in the test with MDA-MB-435, in the test with NCI-H226, in the test with NCI-H23, in the test on NCI-H460, in the test with NCI/ADR-RES and with OVCAR-3 was > 100 µM (inactive) throughout. Moreover, the GI50 in the test on SF-295, in the test on SK-OV-3, in the test with SNB-19, in the test with SW-620 and in the test with T47D was > 100 µM (inactive) in each case.
For the molecule `O=[N+]([O-])c1ccc(NN/N=N/c2ccc(-c3nc4ccccc4s3)cc2)c([N+](=O)[O-])c1`, the GI50 with 786-0 was 20.8 µM (inactive); with A549, 27.7 µM (inactive); in the test with EKVX it was 15 µM (inactive); with K562, 22.7 µM (inactive); in the test on KM12, 27.5 µM (inactive); in the test with MDA-MB-231, 22.3 µM (inactive). The GI50 was 24.1 µM (inactive) in the test on MDA-MB-435; 13.7 µM (inactive) in the test on MOLT-4; 29.5 µM (inactive) in the test with NCI-H226; 20.7 µM (inactive) in the test with NCI-H23; 22.3 µM (inactive) in the test on NCI-H460; 25.1 µM (inactive) with NCI/ADR-RES. Besides, the GI50 in the test on OVCAR-3 was 19.8 µM (inactive); in the test on SF-295, 19.5 µM (inactive); with SK-OV-3 it was 28.7 µM (inactive); in the test with SNB-19 it was 31.1 µM (inactive); with SW-620, 37.6 µM (inactive); with T47D it was 19.1 µM (inactive). In the test on UO-31, the GI50 was 19.1 µM (inactive).
Turning to `COc1cc(-c2c[nH]c3ccccc23)nc(-c2c[nH]c3ccccc23)n1`, the GI50 was 1.86 µM (inactive) in the test with 786-0; 3.27 µM (inactive) in the test with A549; 5.56 µM (inactive) with EKVX; 3.96 µM (inactive) with K562; 4.18 µM (inactive) with KM12; 3.56 µM (inactive) with MCF7. Besides, the GI50 was 2.49 µM (inactive) with MDA-MB-231; 5.77 µM (inactive) in the test with MDA-MB-435; 2.9 µM (inactive) in the test on MOLT-4; 3.08 µM (inactive) in the test on NCI-H460; 8.87 µM (inactive) in the test on NCI/ADR-RES; 6.71 µM (inactive) with OVCAR-3. For the same molecule, the GI50 in the test with SF-295 was 3.13 µM (inactive); in the test on SK-OV-3, 10.9 µM (inactive); in the test on SNB-19 it was 5.26 µM (inactive); in the test with SW-620, 7.62 µM (inactive); with T47D, 5.19 µM (inactive); in the test with UO-31 it was 5.53 µM (inactive).
As for `CN1C(=O)C23CCCC2CC1(c1ccccc1)S3` (stereo not drawn), the GI50 with 786-0, with A549, in the test on EKVX, in the test with K562, with KM12 and with MCF7 was > 100 µM (inactive) each time. Besides, the GI50 was 90.4 µM (inactive) in the test on MDA-MB-231; > 100 µM (inactive) in the test on MDA-MB-435; > 100 µM (inactive) in the test with MOLT-4; > 100 µM (inactive) in the test with NCI-H226; > 100 µM (inactive) in the test with NCI-H23; 64.9 µM (inactive) with NCI/ADR-RES. Besides, the GI50 is > 100 µM (inactive) in the test with OVCAR-3; > 100 µM (inactive) in the test on SF-295; > 100 µM (inactive) with SK-OV-3; > 100 µM (inactive) with SNB-19; > 100 µM (inactive) in the test on SW-620; 54.6 µM (inactive) with T47D. For the same molecule, the GI50 in the test with UO-31 is > 100 µM (inactive).
For `O=c1[nH]c2ccc(C(F)(F)F)cc2nc1-c1ccccc1`, the GI50 in the test with 786-0, in the test with A549, in the test with EKVX, in the test with K562, with MCF7 and with MDA-MB-231 was > 100 µM (inactive) each time. The GI50 in the test on MDA-MB-435, with MOLT-4, in the test with NCI-H23, in the test on NCI-H460, with NCI/ADR-RES and with OVCAR-3 was > 100 µM (inactive) in each case. Also, the GI50 with SF-295, with SNB-19, with SW-620 and in the test on T47D was > 100 µM (inactive) in each case.
For `CC(=O)O[C@H]1C(=O)[C@@]2(C)[C@H]([C@H](OC(=O)c3ccccc3)[C@]3(O)C[C@H](OC(=O)[C@H](O)[C@@H](NC(=O)CC(C)(C)C)c4ccccc4)C(C)=C1C3(C)C)C1(OC(C)=O)CO[C@@H]1C[C@@H]2O` (stereo partly drawn), the GI50 in the test on 786-0 was 0.0251 µM (active); in the test with A549, 0.00371 µM (active); with EKVX, 0.193 µM (active); with K562, 0.00113 µM (active); in the test on MCF7, < 0.001 µM (active); with MDA-MB-231, > 10 µM (inactive). Further, the GI50 in the test with MDA-MB-435 is < 0.001 µM (active); in the test on MOLT-4 it was 0.00296 µM (active); in the test on NCI-H226, 0.0194 µM (active); in the test with NCI-H23 it was 0.00237 µM (active); in the test with NCI-H460 it was 0.00235 µM (active); in the test with NCI/ADR-RES, 4.26 µM (inactive). Besides, the GI50 in the test with SF-295 was 0.0208 µM (active); in the test on SK-OV-3 it was 0.00171 µM (active); in the test with SNB-19 it was 0.122 µM (active); in the test with SW-620 it was 0.00171 µM (active); in the test on T47D, 0.00908 µM (active); with UO-31, 3.96 µM (inactive).
